Article PMC8235719, “New RAD51 Inhibitors to Target Homologous Recombination in Human Cells” (Genes, 2021)

Experiments:
[1] = test system: MCF 10A cells; assay: Cell cycle analysis (propidium iodide flow cytometry); format: cell-based, human; conditions: 24 h
Description: Exponentially growing MDA-MB-231 and MCF 10A cells were seeded into 6-well plates at a density of 1.5 × 10^5 cells/well in the presence of indicated concentrations of B02-iso or 0.01% DMSO (for control cells). After 24 h of incubation, cells were harvested, placed on ice, and washed once with cold PBS. Cells were counted with an automated cell counter (Bio-Rad; Hercules, CA, USA), and 1 × 10^5 cells from each sample were taken for further analysis. Cells were resuspended in PBS, and then cold, absolute ethanol was added dropwise to a cell suspension to reach a final concentration of 70%, followed by incubation on ice for 1 h. Cells were washed in PBS, resuspended in staining buffer (50 µg/mL propidium iodide, 100 µg/mL RNase A, 0.1% Triton X-100 in PBS) and incubated for 15 min in the dark at 37 °C. Cells were analyzed for DNA content by flow cytometry using the Guava easyCyte system (Millipore; Burlington, VT, USA) with the InCyte software (Millipore; Burlington, VT, USA).

[2] = test system: MCF 10A cells; assay: Cell viability assay (Guava ViaCount flow cytometry), MCF 10A; format: cell-based, human
Description: For all cell viability experiments, except experiments involving MMS treatment, cells were seeded into the media containing indicated concentrations of tested compounds or corresponding amounts of DMSO in controls. The concentration of DMSO in media was 0.1%. MDA-MB-231 cells were seeded into 24-well plates at 3.5 × 10^4 cells/well for cells for a 4-day treatment or at 5000 cells/well for a 10-day treatment. MCF 10A cells were seeded into 24-well plates at 1.5 × 10^4 cells/well for a 4-day treatment or at 500 cells/well for a 10-day treatment. In the case of 10-day treatments, the media with compounds were renewed twice on the 4th and the 7th days of treatments. After completion of the treatments, cells were harvested, and their viability was determined by flow cytometry with Guava ViaCount reagent (Luminex; Austin, TX USA). Data were analyzed using the Guava ViaCount software (Millipore; Burlington, VT, USA). The IC50 values were calculated using the GraphPad Prism 5 software (San Diego, CA, USA).

[3] = test system: MDA-MB-231 cells; assay: Cell viability of MDA-MB-231 after 1 h MMS treatment; format: cell-based, human; conditions: MDA-MB-231, 100 µM MMS 1 h
Description: For experiments in which MDA-MB-231 cells were treated with MMS, cells were seeded in 24-well plates at 3.5 × 10^4 cells/well. The next day, cells were treated with 100 µM MMS (Sigma, St. Louis, MO, USA) for 1 h in the presence of increasing concentrations of olaparib and 2 µM B02-iso where indicated. Then, cells were washed twice with PBS, which was followed by incubation with olaparib at indicated concentrations and 2 µM B02-iso where indicated for 4 days. After completion of the treatments, cells were harvested, and their viability was determined by flow cytometry using Guava ViaCount reagent (Luminex; Austin, TX, USA). Data were analyzed using the Guava ViaCount software (Millipore; Burlington, VT, USA).

[4] = test system: RAD51 foci in U-2 OS IndDR-GFP cells; assay: RAD51 foci formation (immunofluorescence); format: cell-based, human; conditions: 30 µM
Description: U-2 OS IndDR-GFP cells were seeded into 8-well polystyrene vessel culture slides at 5 × 10^4 cells/well. The next day, cells were pretreated with B02-iso or 0.1% DMSO (for control cells) for 1 h, followed by the treatment with 5 µM cisplatin for 4 h or left untreated (for control cells). After 4 h of incubation, cells were placed on ice, washed with PBS buffer (twice, 5 min each), pretreated with 0.5% Triton X-100 for 5 min, washed with PBS (twice, 5 min each). Cells were removed from ice and fixed with 4% methanol-free formaldehyde (Pierce; Waltham, […], USA) in PBS for 10 min. Cells were washed with PBS (twice, 5 min each), placed on ice, and permeabilized with 1% Triton X-100 in PBS for 10 min. Cells were removed from ice, washed with PBS (once, 5 min), blocked with a blocking buffer (5% BSA (Bovine Serum Albumin) in PBS) for 30 min, and incubated with rabbit polyclonal RAD51 antibody (1:1000, GeneTex, GTX100469) and mouse monoclonal anti-phospho-histone H2A.X (Ser 139) antibody (1:20,000, clone JBW301, Millipore 05-636) in blocking buffer, containing 0.3% Triton X-100 overnight at 4 °C. […] For foci quantification, 50 cells were chosen for each treatment condition at random, and foci number was counted using ImageJ software. […]

[5] = test system: HR in human U-2 OS IndDR-GFP cells; assay: Inducible I-SceI DR-GFP assay (IndDR-GFP), inhibition of HR; format: cell-based
Description: Exponentially growing U-2 OS IndDR-GFP cells were seeded at a density of 2 × 10^5 cells/well into 6-well plates with DMEM media containing 80 µg/mL G418 and indicated concentrations of RAD51i(s). For I-SceI induced samples, the media were supplemented with 0.5 µM Shield1 (Clontech, Mountain View, CA, USA) with 100 nM triamcinolone acetonide (Sigma, St. Louis, MO, USA). After 24 h of incubation, the media were removed, cells were washed with the DMEM, and the incubation continued for 48 h in DMEM containing 100 units/mL penicillin, 100 µg/mL streptomycin, and 80 µg/mL G418. Then, cells were trypsinized, trypsin solution was neutralized with an equal volume of media, and 10% formaldehyde solution in PBS was added for fixation to reach a final concentration of formaldehyde of 3.3%. The yield of GFP-positive cells indicative of HR activity was measured by flow cytometry with the Guava easyCyte system, and the data were analyzed with the InCyte program (Millipore; Burlington, VT, USA).

**Q.** With O=c1nc(/C=C/c2cccnc2)n(Cc2ccccc2)c2ccccc12 [B02-iso] as the compound, how does the Cell cycle effect [1] read?
**A.** prominent G1 arrest

**Q.** What about the “Times lower sensitivity of MCF 10A compared with MDA-MB-231” value ([2]; 4-day treatment, ratio of IC50) of the same compound?
**A.** approximately 3

**Q.** And the IC50 ([2]; Homo sapiens, 96 h, MCF 10A, 4-day treatment)?
**A.** 11.9 µM

**Q.** What about the “Effect on cell viability in combination with olaparib” value ([2]; MCF 10A, 1.8 µM B02-iso, same range of olaparib concentrations, 10-day treatment) of the same compound?
**A.** did not decrease cell viability

**Q.** And the “Sensitization of cells to B02-iso by MMS in the absence of olaparib” value ([3]; 4-day treatment)?
**A.** did not sensitize

**Q.** What about the “Effect on cell killing by MMS plus olaparib” value ([3]; olaparib, 2 µM B02-iso, 4 days) of the same compound?
**A.** further significantly increased

**Q.** And the “RAD51 foci formation, compound alone” value ([4]; 1 h, no cisplatin)?
**A.** did not significantly affect RAD51 foci formation

**Q.** What about the “RAD51 foci formation induced by cisplatin” value ([4]; 1 h pretreatment, then 5 µM cisplatin 4 h) of the same compound?
**A.** almost completely eliminated RAD51 foci formation

**Q.** What about the IC50 ([5]; Homo sapiens, U2OS, U-2 OS IndDR-GFP cells, 24 h with compound, ± SD, read-out: IC50, efficiency of HR inhibition in IndDR-GFP assay) of the same compound?
**A.** 4.3 ± 0.75 µM

**Q.** What about the “Improvement of potency (HR inhibition) versus B02” value ([5]; IndDR-GFP IC50 of B02-iso vs B02) of the same compound?
**A.** approximately four-fold
